# Experimental data published in paper PMC11013038, “Design, Synthesis, and Evaluation of B-(Trifluoromethyl)phenyl Phosphine–Borane Derivatives as Novel Progesterone Receptor Antagonists” (Molecules, 2024).
# Tests used:
# [1] = target: T1, progesterone receptor (PR) (Homo sapiens, UniProt P06401); assay: T47D alkaline phosphatase assay, PR antagonistic activity in the presence of 1 nM P4; format: cell-based; conditions: T47D cells; for IC50: 1.0 nM P4, 48 h, mean ± SD from three independent experiments; for PR antagonistic activity (in words): in the presence of 1 nM P4
# T1 construct: alkaline phosphatase assay with the T47D human breast cancer cell line; endogenous in cells; host or cells: T47D
# T1 sequence (P06401 1-933): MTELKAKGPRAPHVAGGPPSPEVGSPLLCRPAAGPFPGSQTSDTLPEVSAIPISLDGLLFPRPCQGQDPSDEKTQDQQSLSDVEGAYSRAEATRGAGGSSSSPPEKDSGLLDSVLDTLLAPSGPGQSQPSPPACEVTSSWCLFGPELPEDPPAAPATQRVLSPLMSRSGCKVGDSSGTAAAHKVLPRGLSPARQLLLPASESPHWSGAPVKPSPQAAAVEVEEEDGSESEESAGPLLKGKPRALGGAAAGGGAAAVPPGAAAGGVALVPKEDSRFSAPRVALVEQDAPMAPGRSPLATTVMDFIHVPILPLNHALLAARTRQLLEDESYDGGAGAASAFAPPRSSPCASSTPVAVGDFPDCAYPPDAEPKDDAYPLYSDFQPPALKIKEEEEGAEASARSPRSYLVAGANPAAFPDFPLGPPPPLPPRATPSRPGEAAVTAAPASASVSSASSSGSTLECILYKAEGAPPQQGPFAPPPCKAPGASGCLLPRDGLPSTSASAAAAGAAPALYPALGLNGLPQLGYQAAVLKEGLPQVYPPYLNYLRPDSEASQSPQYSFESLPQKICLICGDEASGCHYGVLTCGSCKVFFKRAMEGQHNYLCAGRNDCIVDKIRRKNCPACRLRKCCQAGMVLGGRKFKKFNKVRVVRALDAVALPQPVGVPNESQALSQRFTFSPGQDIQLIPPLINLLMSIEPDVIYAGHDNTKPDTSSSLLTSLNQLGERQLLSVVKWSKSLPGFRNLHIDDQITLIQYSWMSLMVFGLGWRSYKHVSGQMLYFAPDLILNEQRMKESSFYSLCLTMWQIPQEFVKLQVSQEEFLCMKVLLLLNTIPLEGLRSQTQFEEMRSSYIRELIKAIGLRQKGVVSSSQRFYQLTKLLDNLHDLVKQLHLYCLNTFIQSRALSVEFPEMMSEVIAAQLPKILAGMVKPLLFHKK
# Procedure: The PR agonistic and antagonistic activities of the synthesized phosphine–borane derivatives were evaluated using an alkaline phosphatase assay with the T47D human breast cancer cell line. […] The basal alkaline phosphatase activity was also not affected by the tested compounds alone. […] The PR antagonistic activities of the compounds were assessed in the presence of 1 nM of P4 (5). We also calculated the molecular volume of each compound to investigate the structure–activity relationship (SAR). Table 2 summarizes the PR antagonistic activity and calculated volumes of the synthesized compounds. […] We investigated the binding affinity of the compounds toward the PR ligand-binding domain (LBD) using a fluorescence polarization assay system. […] We also investigated the activity of compounds 28 and 34 toward the androgen receptor (AR) by means of cell-proliferation promoting/inhibitory activity toward androgen-dependent SC-3 cells. […].
# T47D alkaline phosphatase assays were performed as previously described, with minor modifications. Briefly, the human breast cancer cell line T47D (HMS LINCS database Accession Numbers: 50541) was routinely cultivated in RPMI 1640 medium with 10% FBS at 37 °C in a 5% CO2 humidified incubator. The cells were plated in 96-well plates and incubated overnight in a 5% CO2 humidified incubator at 37 °C. The next day, the cells were treated with a fresh medium containing the test compound in the presence of 1 nM of progesterone and further incubated for 48 h. The medium was aspirated, and the cells were fixed with 100 μL of 1.8% formalin–PBS. The fixed cells were washed with PBS, and 100 μL of an assay buffer (1 mg/mL p-nitrophenol phosphate in diethanolamine water solution, pH 9.0) was added. The mixture was incubated at room temperature for 2 h under light-shielded conditions. The absorbance was measured at 405 nm using a DTX 880 Multimode Detector (Beckman Coulter, Brea, CA, USA). All data points were measured in triplicate, and IC50 values were calculated from three independent experiments.
# [2] = LogP (1-octanol/water partition coefficient) determined using HPLC; format: physicochemical
# Procedure: Hydrophobicity is a key determinant of the activity and pharmacokinetics of biologically active compounds, and the octanol–water partition coefficient (P) and logarithm value (LogP) are widely used hydrophobicity parameters. The LogP values of the synthesized compounds were determined using HPLC [45, 46]. Table 1 summarizes the experimentally determined LogP values and calculated values. […] From the viewpoint of the phosphine structure, an increase in the number of carbon atoms increased hydrophobicity in a predictable manner.
# The 1-octanol/water partition coefficient P was determined using HPLC based on the OECD Guideline for Testing Chemicals. A COSMOSIL Packed Column 5C18-MS-II (5 μm, 150 mm × 4.6 mm id, Nacalai Tesque, Inc., Kyoto, Japan) was fitted on an HPLC instrument (Multiwavelength Detector, MD-2010 Plus. JASCO, Tokyo, Japan) equipped with a pump (PU-2080, JASCO) and an oven (SSC-2120, Senshu Scientific Co., Ltd., Tokyo, Japan). The injection volume was 20 µL; the mobile phase was methanol–water 75% (v/v); and the flow rate was 1.0 mL/min in all cases. Compounds were detected by measuring the UV absorption at 240 nm. The temperature of the column was kept at 40.0 (± 0.1) °C during the measurement. The measurement was performed in triplicate, and the mean value was calculated. The dead time t0 was measured with thiourea as the unretained compound, and the capacity factor k was calculated using the equation logk = log (tr − t0/t0), where tr represents the retention time of the compound. A calibration graph was determined experimentally using reference compounds (4-methylphenol, 4-chlorophenol, 4-phenylphenol, diphenylether, fluoranthene, and dichlorodiphenyltrichloroethane) with known logP values. The LogP values of phosphine–boranes were calculated based on a calibration graph (LogP = 2.6269 logkw + 3.059, R^2 = 0.9915).
# [3] = HPLC (OECD guideline), C18 column, methanol–water 75% (v/v), 40 °C, mean of triplicate
# [4] = HPLC, tentative value: hydrophobicity beyond the range of the reference compounds (1.9 < LogP < 6.5)
SMILES,IC50 [1] [nM],PR antagonistic activity (in words) [1],"chromatographic logP [2, 3]",melting point [°C],"chromatographic logP [2, 4]"
"C[P+](C)(C)[BH2-]c1cccc(C(F)(F)F)c1 [Compound 16, B-3-(Trifluoromethyl)phenyl Trimethylphosphine–Borane]",> 10000,only weak potency,3.65,,
"C[P+](C)([BH2-]c1cccc(C(F)(F)F)c1)c1ccccc1 [Compound 17, B-(3-Trifluoromethyl)phenyl Dimethyl(phenyl)phosphine–Borane]",1160 ± 600,potent activities,4.54,75 to 75.8,
"CC[P+]([BH2-]c1cccc(C(F)(F)F)c1)(CC)CC [Compound 18, B-3-(Trifluoromethyl)phenyl Triethylphosphine–Borane]",3670 ± 3340,moderate PR antagonistic activity,4.88,,
"CC[P+]([BH2-]c1cccc(C(F)(F)F)c1)(CC)c1ccccc1 [Compound 19, B-3-(Trifluoromethyl)phenyl Diethyl(phenyl)phosphine–Borane]",1120 ± 220,potent activities,5.24,40 to 40.5,
"CC(C)[P+]([BH2-]c1cccc(C(F)(F)F)c1)(C(C)C)C(C)C [Compound 20, B-3-(Trifluoromethyl)phenyl Triisopropylphosphine–Borane]",1350 ± 470,potent activities,5.89,,
"CC(C)[P+]([BH2-]c1cccc(C(F)(F)F)c1)(c1ccccc1)C(C)C [Compound 21, B-3-(Trifluoromethyl)phenyl Diisopropyl(phenyl)phosphine–Borane]",3350 ± 1490,moderate PR antagonistic activity,5.93,118.7 to 119.1,
"FC(F)(F)c1cccc([BH2-][P+](C2CC2)(C2CC2)C2CC2)c1 [Compound 22, B-3-(Trifluoromethyl)phenyl Tricyclopropylphosphine–Borane]",650 ± 170,potent activities,5.21,,
"CCCC[P+]([BH2-]c1cccc(C(F)(F)F)c1)(CCCC)CCCC [Compound 23, B-3-(Trifluoromethyl)phenyl Tri-n-Butylphosphine–Borane]",> 10000,only weak potency,,,7.34
"FC(F)(F)c1cccc([BH2-][P+](C2CCCC2)(C2CCCC2)C2CCCC2)c1 [Compound 24, B-3-(Trifluoromethyl)phenyl Tricyclopentylphosphine–Borane]",6640 ± 870,moderate PR antagonistic activity,,,7.84
"FC(F)(F)c1cccc([BH2-][P+](C2CCCCC2)(C2CCCCC2)C2CCCCC2)c1 [Compound 25, B-3-(Trifluoromethyl)phenyl Tricyclohexylphosphine–Borane]",> 10000,only weak potency,,100 to 100.5,8.69
"FC(F)(F)c1cccc([BH2-][PH+](C2CCCCC2)C2CCCCC2)c1 [Compound 26, B-3-(Trifluoromethyl)phenyl Dicyclohexylphosphine–Borane]",,,,,7.28
"CN(C)[P+]([BH2-]c1cccc(C(F)(F)F)c1)(N(C)C)N(C)C [Compound 27, B-3-(Trifluoromethyl)phenyl Tris(dimethylamino)phosphine–Borane]",1200 ± 630,potent activities,5.39,,
"C[P+](C)([BH2-]c1ccc(C(F)(F)F)cc1)c1ccccc1 [Compound 29, B-4-(Trifluoromethyl)phenyl Dimethyl(phenyl)phosphine–Borane]",1610 ± 870,,4.65,78 to 78.3,
"CC[P+]([BH2-]c1ccc(C(F)(F)F)cc1)(CC)CC [Compound 30, B-4-(Trifluoromethyl)phenyl Triethylphosphine–Borane]",1760 ± 1440,,4.99,,
"CC[P+]([BH2-]c1ccc(C(F)(F)F)cc1)(CC)c1ccccc1 [Compound 31, B-4-(Trifluoromethyl)phenyl Diethyl(phenyl)phosphine–Borane]",1780 ± 970,,5.41,62 to 62.3,
"CC(C)[P+]([BH2-]c1ccc(C(F)(F)F)cc1)(C(C)C)C(C)C [Compound 32, B-4-(Trifluoromethyl)phenyl Triisopropylphosphine–Borane]",1510 ± 530,,6.06,59 to 59.4,
"CC(C)[P+]([BH2-]c1ccc(C(F)(F)F)cc1)(c1ccccc1)C(C)C [Compound 33, B-4-(Trifluoromethyl)phenyl Diisopropyl(phenyl)phosphine–Borane]",2010 ± 580,,6.15,94.8 to 95.2,
"CCCC[P+]([BH2-]c1ccc(C(F)(F)F)cc1)(CCCC)CCCC [Compound 35, B-4-(Trifluoromethyl)phenyl Tri-n-butylphosphine–Borane]",> 10000,,,33.2 to 33.8,7.5
"FC(F)(F)c1ccc([BH2-][P+](C2CCCC2)(C2CCCC2)C2CCCC2)cc1 [Compound 36, B-4-(Trifluoromethyl)phenyl Tricyclopentylphosphine–Borane]",2630 ± 720,,,88 to 88.6,7.95
"FC(F)(F)c1ccc([BH2-][P+](C2CCCCC2)(C2CCCCC2)C2CCCCC2)cc1 [Compound 37, B-4-(Trifluoromethyl)phenyl Tricyclohexylphosphine–Borane]",> 10000,,,126.7 to 127,8.97
"FC(F)(F)c1ccc([BH2-][PH+](C2CCCCC2)C2CCCCC2)cc1 [Compound 38, B-4-(Trifluoromethyl)phenyl Dicyclohexylphosphine–Borane]",,,,52.7 to 53.7,7.34
